Tested on: CHOP, BiP, and DR5 mRNA in HCT116 cells
Assay: qPCR of UPR target transcripts (CHOP, BiP, DR5)
Format: cell-based, Homo sapiens
Experimental: Cells were grown in 6-well plates and harvested with 0.5 ml of TRIzol reagent (Life Technologies) per manufacturer’s protocol to extract RNA. For cDNA synthesis, 500 ng of total RNA was reverse transcribed with 2 μl of the SuperScript VILO master mix (Life Technologies # 11755050) in a total reaction volume of 10 μl following the manufacturer’s protocol for reaction temperature and duration. The reverse transcription product was diluted to 200 μl with 10 mM Tris-HCl pH 8.2 and used at 1:100 dilution for subsequent RT-PCR reactions.
PCR samples were prepared as described by manufacturer’s protocols from iQ SYBR Green Supermix (BioRad #17088800).
For each experiment, qRT-PCR reactions were set up in triplicate and run using a CFX96 Real Time System (Bio-Rad). Quantitation cycles were determined with CFX Manager 3.0 software (Bio-Rad) and then normalized to GAPDH as an internal control.

[1] = 24 hr, Rep 2, relative to empty traffo, mean of 3 replicates
[2] = 24 hr, Rep 2, relative to empty traffo, replicate 1
[3] = 24 hr, Rep 2, relative to empty traffo, replicate 2
[4] = 24 hr, Rep 2, relative to empty traffo, replicate 3
[5] = Compiled Reps INS RHO, average of 6 reps

## INS-GFP: GFP-tagged proinsulin expressed from plasmid
7 hr, Rep 2, replicate 1
  Cq DR5 total: 23.7188
  Cq(sample) - avg Cq(GAPDH), CHOP: 3.776
  Cq(sample) - avg Cq(GAPDH), DR5 total: 4.418
7 hr, Rep 2, replicate 2
  2^-(deltaCq) CHOP: 0.07646
  2^-(deltaCq) DR5 total: 0.03708
  Cq CHOP: 23.0096
  Cq DR5 total: 24.0535
  Cq(sample) - avg Cq(GAPDH), CHOP: 3.709
  Cq(sample) - avg Cq(GAPDH), DR5 total: 4.753
7 hr, Rep 2, replicate 3
  2^-(deltaCq) CHOP: 0.07103
  2^-(deltaCq) DR5 total: 0.03717
  Cq CHOP: 23.1157
  Cq DR5 total: 24.0502
  Cq(sample) - avg Cq(GAPDH), CHOP: 3.815
  Cq(sample) - avg Cq(GAPDH), DR5 total: 4.75
[1]
  avg. fold induction CHOP: 5.115
  avg. fold induction DR5 total: 1.535
[2]
  fold induction CHOP: 6.073
  fold induction DR5 total: 1.494
[3]
  fold induction CHOP: 4.514
  fold induction DR5 total: 1.718
[4]
  fold induction CHOP: 4.759
  fold induction DR5 total: 1.392
24 hr, Rep 2, replicate 1
  2^-(deltaCq) CHOP: 0.06987
  2^-(deltaCq) DR5 total: 0.04358
  Cq CHOP: 23.5439
  Cq DR5 total: 24.225
  Cq(sample) - avg Cq(GAPDH), CHOP: 3.839
  Cq(sample) - avg Cq(GAPDH), DR5 total: 4.52
24 hr, Rep 2, replicate 2
  2^-(deltaCq) CHOP: 0.05193
  2^-(deltaCq) DR5 total: 0.05009
  Cq CHOP: 23.972
  Cq DR5 total: 24.0239
  Cq(sample) - avg Cq(GAPDH), CHOP: 4.267
  Cq(sample) - avg Cq(GAPDH), DR5 total: 4.319
24 hr, Rep 2, replicate 3
  2^-(deltaCq) CHOP: 0.05475
  2^-(deltaCq) DR5 total: 0.04058
  Cq CHOP: 23.8955
  Cq DR5 total: 24.3278
  Cq(sample) - avg Cq(GAPDH), CHOP: 4.191
  Cq(sample) - avg Cq(GAPDH), DR5 total: 4.623
Compiled Reps INS RHO, average of 3 reps
  BiP avg fold change relative to empty: 1.818
[5]
  CHOP avg fold change relative to empty: 4.114
  DR5 avg fold change relative to empty: 1.533
  GAPDH avg fold change relative to empty: 1.006
  GFP construct avg fold change relative to empty: 92.5691
Compiled Reps INS RHO, rep 1
  BiP fold change relative to empty: 1.621
  CHOP fold change relative to empty: 3.15
  DR5 fold change relative to empty: 1.705
  GAPDH fold change relative to empty: 0.8468
  GFP construct fold change relative to empty: 79.1961
Compiled Reps INS RHO, rep 2
  BiP fold change relative to empty: 1.965
  CHOP fold change relative to empty: 3.503
  DR5 fold change relative to empty: 1.533
  GAPDH fold change relative to empty: 1.093
  GFP construct fold change relative to empty: 73.666
Compiled Reps INS RHO, rep 3
  BiP fold change relative to empty: 1.867
  CHOP fold change relative to empty: 2.685
  DR5 fold change relative to empty: 1.358
  GAPDH fold change relative to empty: 1.081
  GFP construct fold change relative to empty: 131.33
Compiled Reps INS RHO, rep 4
  CHOP fold change relative to empty: 6.073
  DR5 fold change relative to empty: 1.494
  GAPDH fold change relative to empty: 0.8281
  GFP construct fold change relative to empty: 82.5431
Compiled Reps INS RHO, rep 5
  CHOP fold change relative to empty: 4.514
  DR5 fold change relative to empty: 1.718
  GAPDH fold change relative to empty: 1.042
  GFP construct fold change relative to empty: 92.9155
Compiled Reps INS RHO, rep 6
  CHOP fold change relative to empty: 4.759
  DR5 fold change relative to empty: 1.392
  GAPDH fold change relative to empty: 1.149
  GFP construct fold change relative to empty: 95.7639
HCT116, transfected 24 hr
  UPR target gene transcription: upregulated BiP and CHOP mRNAs
